Results as given in the NIST ThermoML archive (doi:10.1016/j.fluid.2007.06.019).
Where “and” joins values, the source holds several entries; their conditions need not be identical. Equal entries are not always repeated. ± gives the expanded uncertainty stated by the source.

Details: Liquid, Alternating current cell with electrodes

CCCCCCCC[n+]1ccn(C)c1.F[B-](F)(F)F [1-methyl-3-octylimidazolium tetrafluoroborate]
Details	electrical conductivity
273.23 K, 101.33 kPa	0.00961 ± 0.00058 S/m
273.37 K, 101.33 kPa	0.00973 S/m and 0.00997 S/m
278.15 K, 101.33 kPa	0.0144 S/m and 0.0148 S/m
283.15 K, 101.33 kPa	0.0211 S/m and 0.0218 S/m and 0.0212 S/m
288.15 K, 101.33 kPa	0.0303 S/m and 0.0305 S/m
288.16 K, 101.33 kPa	0.0312 ± 0.0019 S/m
293.15 K, 101.33 kPa	0.0435 S/m and 0.0423 S/m
293.16 K, 101.33 kPa	0.0427 ± 0.0026 S/m
298.15 K, 100 kPa	0.0587 ± 0.0036 S/m
298.15 K, 101.33 kPa	0.0584 S/m [middle of 5 runs]
298.15 K, 24500 kPa	0.0441 ± 0.0027 S/m
298.15 K, 49500 kPa	0.0333 ± 0.002 S/m
298.15 K, 73500 kPa	0.0257 ± 0.0016 S/m
298.15 K, 98400 kPa	0.0197 ± 0.0012 S/m
298.15 K, 122900 kPa	0.0152 ± 0.00093 S/m
298.15 K, 147100 kPa	0.012 ± 0.00073 S/m
298.15 K, 171600 kPa	0.00941 ± 0.00058 S/m
298.15 K, 196100 kPa	0.00742 ± 0.00046 S/m
298.16 K, 101.33 kPa	0.058 ± 0.0035 S/m
303.15 K, 101.33 kPa	0.076 S/m and 0.0794 S/m and 0.0775 S/m
308.15 K, 101.33 kPa	0.0992 S/m and 0.104 S/m and 0.102 S/m
313.15 K, 101.33 kPa	0.127 S/m and 0.131 S/m and 0.132 S/m
318.15 K, 101.33 kPa	0.16 S/m and 0.165 S/m and 0.167 S/m
323.11 K, 101.33 kPa	0.198 S/m and 0.205 S/m
323.13 K, 101.33 kPa	0.2 ± 0.012 S/m
323.15 K, 100 kPa	0.203 ± 0.013 S/m
323.15 K, 24500 kPa	0.162 ± 0.0099 S/m
323.15 K, 49300 kPa	0.13 ± 0.0079 S/m
323.15 K, 73500 kPa	0.106 ± 0.0064 S/m
323.15 K, 98100 kPa	0.0853 ± 0.0052 S/m
323.15 K, 122600 kPa	0.0695 ± 0.0042 S/m
323.15 K, 147600 kPa	0.0567 ± 0.0034 S/m
323.15 K, 171600 kPa	0.0468 ± 0.0028 S/m
323.15 K, 196100 kPa	0.0386 ± 0.0024 S/m
328.15 K, 101.33 kPa	0.244 S/m and 0.252 S/m
328.19 K, 101.33 kPa	0.246 ± 0.015 S/m
333.11 K, 101.33 kPa	0.304 ± 0.018 S/m
333.12 K, 101.33 kPa	0.294 ± 0.018 S/m
333.16 K, 101.33 kPa	0.298 ± 0.018 S/m
338.12 K, 101.33 kPa	0.355 ± 0.021 S/m
338.2 K, 101.33 kPa	0.353 S/m and 0.364 S/m
343.16 K, 101.33 kPa	0.42 ± 0.025 S/m
343.2 K, 101.33 kPa	0.416 S/m and 0.43 S/m
348.15 K, 100 kPa	0.486 ± 0.029 S/m
348.15 K, 24500 kPa	0.406 ± 0.025 S/m
348.15 K, 49000 kPa	0.339 ± 0.021 S/m
348.15 K, 73500 kPa	0.287 ± 0.017 S/m
348.15 K, 98400 kPa	0.242 ± 0.015 S/m
348.15 K, 122600 kPa	0.206 ± 0.012 S/m
348.15 K, 147100 kPa	0.175 ± 0.011 S/m
348.15 K, 171600 kPa	0.149 ± 0.009 S/m
348.15 K, 196100 kPa	0.128 ± 0.0077 S/m
348.16 K, 101.33 kPa	0.485 ± 0.029 S/m
348.17 K, 101.33 kPa	0.502 ± 0.03 S/m
348.24 K, 101.33 kPa	0.494 ± 0.03 S/m
353.15 K, 101.33 kPa	0.561 S/m and 0.581 S/m
353.21 K, 101.33 kPa	0.572 ± 0.034 S/m

CCCCCCCC[n+]1ccn(C)c1.F[P-](F)(F)(F)(F)F [1-octyl-3-methylimidazolium hexafluorophosphate]
Details	electrical conductivity
273.2 K, 101.33 kPa	0.00325 ± 0.0002 S/m
273.22 K, 101.33 kPa	0.00331 ± 0.0002 S/m
278.15 K, 101.33 kPa	0.0053 S/m and 0.0052 S/m
283.15 K, 101.33 kPa	0.00823 S/m and 0.00822 S/m and 0.00807 S/m
288.15 K, 101.33 kPa	0.0121 ± 0.00073 S/m
288.16 K, 101.33 kPa	0.0124 S/m
293.15 K, 101.33 kPa	0.0181 S/m and 0.0182 S/m and 0.0177 S/m
298.15 K, 100 kPa	0.0263 ± 0.0016 S/m
298.15 K, 101.33 kPa	0.0257 S/m [middle of 4 runs]
298.15 K, 19600 kPa	0.0202 ± 0.0012 S/m
298.15 K, 39200 kPa	0.0154 ± 0.00095 S/m
298.15 K, 49500 kPa	0.0134 ± 0.00083 S/m
298.15 K, 59100 kPa	0.0117 ± 0.00072 S/m
298.15 K, 78500 kPa	0.00918 ± 0.00057 S/m
298.15 K, 98100 kPa	0.00712 ± 0.00044 S/m
303.15 K, 101.33 kPa	0.036 S/m and 0.0353 S/m and 0.0358 S/m
308.15 K, 101.33 kPa	0.0479 S/m and 0.048 S/m
308.16 K, 101.33 kPa	0.0493 S/m and 0.0489 S/m
313.15 K, 101.33 kPa	0.0655 S/m and 0.0653 S/m
313.16 K, 101.33 kPa	0.0659 S/m and 0.0654 S/m
318.15 K, 101.33 kPa	0.0863 S/m [middle of 4 runs]
323.11 K, 101.33 kPa	0.108 ± 0.0065 S/m
323.13 K, 101.33 kPa	0.11 ± 0.0066 S/m
323.15 K, 100 kPa	0.107 ± 0.0069 S/m
323.15 K, 101.33 kPa	0.111 S/m
323.15 K, 24200 kPa	0.0814 ± 0.005 S/m
323.15 K, 49000 kPa	0.0625 ± 0.0038 S/m
323.15 K, 73500 kPa	0.0483 ± 0.0029 S/m
323.15 K, 98100 kPa	0.0375 ± 0.0023 S/m
323.15 K, 122600 kPa	0.0292 ± 0.0018 S/m
323.15 K, 147100 kPa	0.0229 ± 0.0014 S/m
323.15 K, 171300 kPa	0.0181 ± 0.0011 S/m
323.15 K, 196100 kPa	0.0143 ± 0.0009 S/m
328.11 K, 101.33 kPa	0.142 ± 0.0085 S/m
328.12 K, 101.33 kPa	0.141 ± 0.0085 S/m
328.13 K, 101.33 kPa	0.136 S/m and 0.137 S/m
333.11 K, 101.33 kPa	0.17 S/m
333.19 K, 101.33 kPa	0.173 ± 0.01 S/m
338.18 K, 101.33 kPa	0.209 S/m and 0.21 S/m
343.16 K, 101.33 kPa	0.254 ± 0.015 S/m
343.17 K, 101.33 kPa	0.253 ± 0.015 S/m
348.15 K, 100 kPa	0.29 ± 0.018 S/m
348.15 K, 24500 kPa	0.233 ± 0.014 S/m
348.15 K, 49300 kPa	0.188 ± 0.011 S/m
348.15 K, 73500 kPa	0.152 ± 0.0092 S/m
348.15 K, 98100 kPa	0.124 ± 0.0075 S/m
348.15 K, 122600 kPa	0.101 ± 0.0061 S/m
348.15 K, 147100 kPa	0.083 ± 0.005 S/m
348.15 K, 171600 kPa	0.0681 ± 0.0041 S/m
348.15 K, 195800 kPa	0.0562 ± 0.0034 S/m
348.17 K, 101.33 kPa	0.304 ± 0.018 S/m
348.18 K, 101.33 kPa	0.303 ± 0.018 S/m
353.17 K, 101.33 kPa	0.358 S/m and 0.36 S/m
